Where a SMILES comes first, the peptide text is derived from it.
Tests used:
modified hASL^Lys3UUU [1] = test: fluorescent binding assay of fluorescein-labeled peptides, binding constants; set-up: species or system human; settings: for Kd: Modified hASL^Lys3UUU, N-terminal fluorescein peptide, phosphate buffer pH 6.8, ASL 0-3 μM; for affinity relative to P6: from Kd values, compared with P6
Method: (§1) Fifteen-amino acid peptides were selected from the sequences predicted in silico and were chemically synthesized, each with fluorescein (Flc) at the N-terminus. This set of peptides included the original P1 and P6 sequences to be used as an internal control. […] Concentrated peptide stocks were stored in 25 μl aliquots at […] for later use. Working concentrations were diluted for each experiment and kept on ice or stored at −20° C.
(§2) Fluorescent assays were conducted in phosphate buffer (10 mM Na2HPO4 and 10 mM KH2PO4, pH 6.8) in low volume 384 well plates. All buffers, peptides, and RNA were pipetted into wells via a liquid handling robot (Janus, PerkinElmer). All plates were read using a plate reader fitted with fluorescein specific filters (PerkinElmer EnVision) which was optimized for each plate and peptide before each experiment. Initial validation screens were conducted by obtaining fluorescent signals for each peptide (0.50 μM) alone (FS0) and in the presence of a 2-fold excess of modified or unmodified hASLLys3UUU (FS1). Percent change in fluorescent signal was calculated (% Change=100*(FS1/FS0)). A decrease (quench) in fluorescent signal in the presence of RNA indicated a binding event between the peptide and ASL. In control wells H2O, phosphate buffer, and ASLs were individually tested for any inherent fluorescent signal. Water and buffer signals served as blank background signals. […] All controls and experimental sets were repeated in triplicate within a single plate and signals are an average of each triplicate. For the subset of peptides which were further studied to obtained binding constants, the fluorescent binding assay was completed as above. The peptide fluorescent signal was monitored throughout an increasing ASL concentration (0-3 μM). The percent quench in signal was plotted against the hASL concentration. Binding constants (Kd) were calculated using the single linear regression function within SigmaPlot. Experiments were performed in triplicate within a single plate and fluorescent signals are an average of each triplicate.

modified hASL^Lys3UUU [2] = test: initial validation screen, change in peptide fluorescence on addition of ASL; type: binding, human; settings: 2-fold excess of modified hASL^Lys3UUU; result in words
Method: (§3) An initial fluorescent signal (FS0) of peptide alone ([…]) was obtained. Then, a 2-fold excess of ASL was added to each peptide and the fluorescent signal (FS1) was monitored. The percent change (100*(FS1/FS0)) is graphed for each of the assayed peptides. Dark gray bars represent the percent change in fluorescence in the presence of the modified hASL^Lys3UUU and light gray bars represent the percent change in the presence of the unmodified hASL^Lys3UUU.
(§4) Sequences predicted during the in silico optimizations to have the lowest binding energies and thus, potentially higher affinity for modified hASL^Lys3, were selected for validation with a fluorescence assay (9). Fifteen peptides (Table 3) were chemically synthesized with fluorescein at the N-terminus to allow for very sensitive, low volume detection of peptide-RNA binding interactions. P1 and P6 from phage display selections (9), the initially evolved sequences, P26 and P27, and the best binders from each of the Cases 1, 2 and 3 were synthesized. Variants of these sequences that had one or two amino acid changes were also synthesized (Table 3). During the initial validation assay, changes in the amount of fluorescence were monitored to determine whether the peptide was binding to the modified and/or unmodified hASLLys3UUU and to what relative degree (FIG. 12). In this screening assay, P6 behaved as expected. […] Other peptides behaved similarly.
as §1, §2

modified hASLLys3 = settings: cited from earlier work
unmodified ASL = settings: NCp7, unmodified ASL; cited from earlier work
unmodified hASL^Lys3UUU [3] = test: initial validation screen, change in peptide fluorescence on addition of ASL; type: binding, human; settings: 2-fold excess of unmodified hASL^Lys3UUU; result in words
Method: as §3, §4, §1, §2

hypermodified ASL^Lys3 = settings: result in words; cited from earlier work
[4] = test system: singly modified ASL^Lys3, AsL^Lys1, 2 and Escherichia coli ASL^Glu and ASL^Val; settings: singly modified ASL^Lys3, ASL^Lys1,2, E. coli ASL^Glu and ASL^Val; result in words; cited from earlier work
unmodified hASL^Lys3UUU [5] = test: fluorescent binding assay of fluorescein-labeled peptides, binding constants; set-up: species or system human; settings: N-terminal fluorescein peptide, phosphate buffer pH 6.8, ASL 0-3 μM
Method: as §1, §2

Question: Which Kd (modified hASL^Lys3UUU [1]) does the source give for `CC(C)C[C@H](NC(=O)[C@H](Cc1ccccc1)NC(=O)[C@H](C)NC(=O)[C@H](Cc1c[nH]cn1)NC(=O)[C@H](Cc1c[nH]cn1)NC(=O)[C@@H](NC(=O)[C@@H](NC(=O)[C@@H](N)CCCNC(=N)N)C(C)C)[C@@H](C)O)C(=O)NCC(=O)N[C@@H](C)C(=O)N[C@@H](Cc1c[nH]cn1)C(=O)N[C@@H](CCCNC(=N)N)C(=O)N[C@H](C(=O)N[C@H](C(=O)NCC(=O)O)C(C)C)[C@@H](C)O` [Peptide P6, RVTHHAFLGAHRTVG, reference compound] (H-RVTHHAFLGAHRTVG-OH) here?
Answer: The Kd was 0.5 ± 0.1 µM.

Question: And the “change in fluorescent signal of peptide (binding, preference for modified ASL)” value (“change … (binding, preference for modified ASL)” below) (modified hASL^Lys3UUU [2])?
Answer: Its value is “quenched more than when bound by the unmodified hASL^Lys3UUU”.

Question: With RWTHCQFWQGFRVNG [Peptide P38] as the compound, how does the “change … (binding, preference for modified ASL)” value (modified hASL^Lys3UUU [2]) read?
Answer: Its value is “increased the fluorescence either with the unmodified or modified hASL^Lys3UUU, but not both”.

Question: With RHHHASFGPPWLSHG [Peptide P32] as the compound, how does the “change … (binding, preference for modified ASL)” value (modified hASL^Lys3UUU [2]) read?
Answer: The value was “significantly weaker affinities and a lack of specificity”.

Question: Which “change … (binding, preference for modified ASL)” value (modified hASL^Lys3UUU [2]) does the source give for RFQHSNWFSGWKVNG [Peptide P34] here?
Answer: Its value is “increased the fluorescence either with the unmodified or modified hASL^Lys3UUU, but not both”.

Question: Which results are given for “NCp7: HIV-1 nucleocapsid protein 7, binds and destabilizes htRNA^Lys3UUU (MQRGNFRNQRKIVKCFNCGKEGHTARNCRAPRKKGCWKCGKEGHQMKDCTERQAN; Nucleocapsid protein p7; UniProt P04591 378-432, looked up)”?
Answer: Kd (modified hASLLys3; NCp7, modified hASLLys3): 0.28 ± 0.03 µM; increase of NCp7 affinity by the modifications (modified hASLLys3; modified vs unmodified hASLLys3): ~10 fold; Kd (unmodified ASL): 2.3 ± 0.62 µM

Question: With RTLHHALFGAHQTVG [Peptide P26] as the compound, how does the “change … (binding, preference for modified ASL)” value (modified hASL^Lys3UUU [2]) read?
Answer: Its value is “increased the fluorescence either with the unmodified or modified hASL^Lys3UUU, but not both”.

Question: Which Kd (modified hASL^Lys3UUU [1]) does the source give for `CSCC[C@H](NC(=O)[C@H](CCCNC(=N)N)NC(=O)[C@H](Cc1c[nH]c2ccccc12)NC(=O)[C@H](CC(C)C)NC(=O)[C@@H]1CCCN1C(=O)[C@H](Cc1c[nH]cn1)NC(=O)[C@H](Cc1ccccc1)NC(=O)[C@H](CO)NC(=O)[C@H](Cc1c[nH]cn1)NC(=O)[C@H](Cc1c[nH]cn1)NC(=O)[C@H](CCC(N)=O)NC(=O)[C@H](Cc1c[nH]c2ccccc12)NC(=O)[C@@H](N)CCCNC(=N)N)C(=O)N[C@@H](CO)C(=O)NCC(=O)O` [Peptide P31, RWQHHSFHPLWRMSG] (H-RWQHHSFHPLWRMSG-OH) here?
Answer: The Kd was 0.58 ± 0.24 µM.

Question: What about the “affinity relative to P6” value (modified hASL^Lys3UUU [1]) of the same compound?
Answer: Its value is “equivalent to P6”.

Question: What about the “change … (binding, preference for modified ASL)” value (modified hASL^Lys3UUU [2]) of the same compound?
Answer: The value was “quenched to a greater degree in binding the modified hASL^Lys3UUU than was the fluorescence of P6”.

Question: What about the “change in fluorescent signal of peptide” value (unmodified hASL^Lys3UUU [3]) of the same compound?
Answer: Its value is “little or no change in fluorescence”.

Question: What does the source list for RGVFSHPHTAVPSHN?
Answer: binding affinity (hypermodified ASL^Lys3): relatively high binding affinity; binding [4]: bound poorly

Question: Which Kd (modified hASL^Lys3UUU [1]) does the source give for `CSCC[C@H](NC(=O)[C@H](CCC(N)=O)NC(=O)[C@H](Cc1c[nH]c2ccccc12)NC(=O)[C@@H](N)CCCNC(=N)N)C(=O)N[C@H](C(=O)N[C@@H](C)C(=O)N[C@@H](Cc1ccccc1)C(=O)N[C@@H](C)C(=O)N[C@@H](Cc1c[nH]cn1)C(=O)NCC(=O)N[C@@H](Cc1c[nH]c2ccccc12)C(=O)N[C@@H](CCCNC(=N)N)C(=O)N[C@@H](Cc1c[nH]cn1)C(=O)N[C@@H](CO)C(=O)NCC(=O)O)[C@@H](C)O` [Peptide P27, RWQMTAFAHGWRHSG] (H-RWQMTAFAHGWRHSG-OH) here?
Answer: The Kd was 0.05 ± 0.02 µM.

Question: And the “affinity relative to P6” value (modified hASL^Lys3UUU [1])?
Answer: The value was 10 fold.

Question: And the “change … (binding, preference for modified ASL)” value (modified hASL^Lys3UUU [2])?
Answer: The value was “quenched to a greater degree in binding the modified hASL^Lys3UUU than was the fluorescence of P6”.

Question: And the “change in fluorescent signal of peptide” value (unmodified hASL^Lys3UUU [3])?
Answer: Its value is “little or no change in fluorescence”.

Question: Which Kd (modified hASL^Lys3UUU [1]) does the source give for `CC(C)C[C@H](NC(=O)[C@H](CO)NC(=O)[C@@H]1CCCN1C(=O)[C@H](Cc1ccccc1)NC(=O)[C@H](CO)NC(=O)[C@@H](NC(=O)[C@H](CO)NC(=O)[C@@H](N)Cc1ccccc1)C(C)C)C(=O)N1CCC[C@H]1C(=O)N[C@@H](C)C(=O)N1CCC[C@H]1C(=O)N1CCC[C@H]1C(=O)N[C@@H](CC(=O)O)C(=O)N[C@@H](CCCNC(=N)N)C(=O)N[C@@H](CO)C(=O)O` [Peptide P1, FSVSFPSLPAPPDRS, reference compound] (H-FSVSFPSLPAPPDRS-OH) here?
Answer: The Kd was 0.13 ± 0.02 µM.

Question: And the “affinity relative to P6” value (modified hASL^Lys3UUU [1])?
Answer: Its value is “four fold”.

Question: And the Kd (unmodified hASL^Lys3UUU [5])?
Answer: The Kd was 0.15 ± 0.04 µM.

Question: And the “change … (binding, preference for modified ASL)” value (modified hASL^Lys3UUU [2])?
Answer: The value was “increased the fluorescence either with the unmodified or modified hASL^Lys3UUU, but not both”.

Question: For RWNGSQWFCAWRANG [Peptide P36], which “change … (binding, preference for modified ASL)” value (modified hASL^Lys3UUU [2]) is on record?
Answer: Its value is “increased the fluorescence either with the unmodified or modified hASL^Lys3UUU, but not both”.

Question: For RHSHAHFGPPWLSHG [Peptide P33], which “change … (binding, preference for modified ASL)” value (modified hASL^Lys3UUU [2]) is on record?
Answer: Its value is “significantly weaker affinities and a lack of specificity”.

— patent US9975922B2, “Peptide inhibitor of HIV reverse transcription” (priority 2013, dated 2018)
